Data from patent publication US5663298A, “UCK14 compounds” (Kyowa Hakko Kogyo Co., Ltd., priority 1995, dated 1997).

Key:
[1] = test system: human epidermoid carcinoma A431 cells; test: Growth inhibition against human epidermoid carcinoma A431 cells (MTT); format: cell-based; details: 72 hours culture, read-out: IC50 (50% growth inhibitory concentration) A431
Source text: (§1) Growth inhibition against human epidermoid carcinoma A431 cells and human pancreatic carcinoma PSN-1 cells
(§2) Human epidermoid carcinoma A431 cells (ATCC CRL 1555) were suspended in Dulbecco's modified Eagle's medium (Nissui Pharmaceutical Co., Ltd.) supplemented with 10% fetal bovine serum (Filtron), and human pancreatic carcinoma PSN-1 cells [Biochem. Biophys. Res. Commun. 140, 167 (1986)] were suspended in RPMI-1640 medium (Gibco BRL) supplemented with 5% fetal bovine serum (Filtron). Each cell suspension was put into wells of a 96-well microtiter plate (#167008, Nunc) in an amount of 3×10^3 cells/well, followed by preincubation in a 5% CO2 -incubator at 37° C. for 24 hours. Then, 5mM solutions of UCK14A1, UCK14A2 and UCK14C were diluted stepwise and the resulting solutions were respectively added to the wells in an amount of 50 μl/well (highest final concentration: 1 mM). The cells were cultured in the 5% CO2 -incubator at 37° C. for 72 hours. Five hours before the end of culturing, 50 μl of a solution of MTT [3-(4,5-dimethylthiazo-2-yl)-2,5-diphenyltetrazolium bromide (Sigma Chemical Co., Ltd.)] in the medium (final concentration: 1 mg/ml) was added to each well. After the completion of culturing, DMSO was added to the wells in an amount of 150 μl/well, followed by vigorous stirring with a plate mixer to completely dissolve crystals of MTT-formazan. […]

[2] = test system: human pancreatic carcinoma PSN-1 cells; test: Growth inhibition against human pancreatic carcinoma PSN-1 cells (MTT); format: cell-based; details: 72 hours culture, read-out: IC50 (50% growth inhibitory concentration) PSN-1
Source text: as §1, §2

[3] = Solubility (physicochemical properties); details: qualitative, in various solvents
Source text: The physicochemical properties of UCK14 compounds are shown below.

- IC50 [1]: 25.2 µM
- IC50 [2]: 16.1 µM
Structure (SMILES): CCC(C)C1C(=O)OC1C(=O)NC1CC1CC(NC(=O)C(C)N)C(=O)O (stereo not drawn) [UCK14A1]
- Solubility [3]: Soluble in water, methanol and dimethylsulfoxide (DMSO); insoluble in hexane, chloroform and ethyl acetate
